Data published in the NIST ThermoML archive (doi:10.1016/j.tca.2015.06.017).
Numbers after ± are expanded uncertainties.

Details: Liquid, Vibrating tube method

CCCCCCC [heptane]
mass density [kg/m3]
Details	283.15 K	288.15 K	293.15 K	298.15 K	303.15 K	308.15 K	313.15 K	318.15 K	323.15 K	328.15 K
100 kPa	692.57 ± 0.25	688.55 ± 0.25	684.19 ± 0.25	679.95 ± 0.25	675.68 ± 0.25	671.39 ± 0.25	667.06 ± 0.25	662.54 ± 0.25	658.32 ± 0.25	653.81 ± 0.25
2000 kPa	694.49 ± 0.27	690.28 ± 0.27	686.15 ± 0.27	682.02 ± 0.27	677.75 ± 0.27	673.45 ± 0.27	669.26 ± 0.27	664.87 ± 0.27	660.53 ± 0.28	656.27 ± 0.28
5000 kPa	697.06 ± 0.3	693.01 ± 0.3	688.99 ± 0.31	684.8 ± 0.31	680.76 ± 0.31	676.49 ± 0.31	672.35 ± 0.31	668.35 ± 0.31	664.05 ± 0.31	659.84 ± 0.32
7000 kPa	698.8 ± 0.33	694.77 ± 0.33	690.74 ± 0.33	686.68 ± 0.33	682.65 ± 0.33	678.48 ± 0.33	674.51 ± 0.34	670.32 ± 0.34	666.33 ± 0.34	661.99 ± 0.34
10000 kPa	701.2 ± 0.36	697.23 ± 0.36	693.41 ± 0.36	689.23 ± 0.37	685.52 ± 0.37	681.37 ± 0.37	677.42 ± 0.37	673.52 ± 0.37	669.41 ± 0.38	665.25 ± 0.38
20000 kPa	709.08 ± 0.47	705.18 ± 0.47	701.57 ± 0.48	697.65 ± 0.48	694.07 ± 0.48	690.12 ± 0.49	686.53 ± 0.49	682.85 ± 0.49	679.17 ± 0.5	675.25 ± 0.5
30000 kPa	716.12 ± 0.57	712.38 ± 0.58	708.99 ± 0.58	705.17 ± 0.59	701.86 ± 0.59	698.22 ± 0.6	694.65 ± 0.6	691.31 ± 0.6	687.64 ± 0.61	684.02 ± 0.61
40000 kPa	722.63 ± 0.67	719.01 ± 0.68	715.7 ± 0.68	712.11 ± 0.69	708.87 ± 0.69	705.32 ± 0.7	702.08 ± 0.71	698.89 ± 0.71	695.38 ± 0.72	691.84 ± 0.72
50000 kPa	728.63 ± 0.77	725.2 ± 0.77	722.03 ± 0.78	718.54 ± 0.79	715.5 ± 0.79	712.12 ± 0.8	708.98 ± 0.81	705.82 ± 0.81	702.5 ± 0.82	699.13 ± 0.83
60000 kPa	734.33 ± 0.86	731.01 ± 0.87	728.02 ± 0.87	724.73 ± 0.88	721.67 ± 0.89	718.41 ± 0.9	715.39 ± 0.9	712.36 ± 0.91	709.15 ± 0.92	706.05 ± 0.93
65000 kPa	736.99 ± 0.9	733.73 ± 0.91	730.72 ± 0.92	727.65 ± 0.93	724.56 ± 0.93	721.43 ± 0.94	718.32 ± 0.95	715.32 ± 0.96	712.32 ± 0.97	709.3 ± 0.97
